The nature of data set [1]: Antiproliferative activity against human GTL16 cells after 72 hrs. The note with it: GTL 16, 72 h.
The target in data set [2] is Voltage-gated inwardly rectifying potassium channel KCNH2 (Homo sapiens, UniProt Q12809). The data set can be described thus: Inhibition of Kv11.1 channel.
The nature of data set [3]: Half life in rat at 1 mg/kg, iv and po. The class given is ADME, organism-based. Further details: dose 1 mg/kg, route oral. The note with it: in vivo.
Data set [4] can be described thus: Oral bioavailability in rat at 1 mg/kg. Particulars: in vivo. The class given is ADME, organism-based.
For data set [5], the system named is Rattus norvegicus. The data set can be described thus: Volume of distribution at steady state in rat at 1 mg/kg, iv and po. The class given is ADME, organism-based. Further details: dose 1 mg/kg, route oral. The note with it: in vivo.
Data set [6] concerns the target T1, Hepatocyte growth factor receptor (Homo sapiens, UniProt P08581).
Data set [7] in a line: Half life in rat at 2 mg/kg, iv and 4 mg/kg, po. The class given is ADME, organism-based. The note with it: in vivo.
Data set [8] in a line: Volume of distribution at steady state in rat at 2 mg/kg, iv and 4 mg/kg, po. The class given is ADME, organism-based. The note with it: in vivo, read-out: Vdss.
Data set [9] in a line: Oral bioavailability in rat at 4 mg/kg. The class given is ADME, organism-based. The note with it: in vivo.
Data set [10] in a line: Plasma clearance in rat at 2 mg/kg, iv and 4 mg/kg, po. The class given is ADME, organism-based.
The nature of data set [11]: Half life in rat at 0.31 mg/kg, iv and 0.62 mg/kg, po. The class given is ADME, organism-based. The note with it: in vivo.
Data set [12] is described as follows: Oral bioavailability in rat at 0.62 mg/kg. The class given is ADME, organism-based. The note with it: in vivo.
A short description of data set [13]: Plasma clearance in rat at 0.31 mg/kg, iv and 0.62 mg/kg, po. The class given is ADME, organism-based.
Data set [14] is described as follows: Volume of distribution at steady state in rat at 0.31 mg/kg, iv and 0.62 mg/kg, po. The class given is ADME, organism-based. Particulars: in vivo, read-out: Vdss.
The nature of data set [15]: Solubility of the compound at pH 7.4. The class given is physicochemical. The note with it: buffer.
Data set [16] concerns the target Cytochrome P450 2C9 (Homo sapiens, UniProt P11712). The data set can be described thus: Inhibition of CYP2C9. The class given is ADME.
The target of data set [17] is Cytochrome P450 3A4 (Homo sapiens, UniProt P08684). In words: Inhibition of CYP3A4. The class given is ADME.
Data set [18] is described as follows: Lipophilicity, log P of the compound. The class given is physicochemical. Particulars: octanol/water.
Data set [19] has as its target Cytochrome P450 2D6 (Homo sapiens, UniProt P10635). In words: Inhibition of CYP2D6. The class given is ADME.
Data set [20] deals with T1, Hepatocyte growth factor receptor. In words: Inhibition of c-MET overexpressed in human GTL-16 cells assessed as phosphorylation at C-terminal Y1349 after 2 hrs by Western blot analysis. The class given is cell-based.
A short description of data set [21]: Inhibition of potassium channel IKr.
Data set [22] in a line: Volume of distribution at steady state in rat at 2 mg/kg, iv. The class given is ADME, organism-based. Details: dose 2 mg/kg, route intravenous. Particulars: in vivo, read-out: Vdss.
Data set [23] can be described thus: Plasma clearance in rat at 2 mg/kg, iv. The class given is ADME, organism-based. Further details: dose 2 mg/kg, route intravenous.
A short description of data set [24]: Half life in rat at 2 mg/kg, iv. The class given is ADME, organism-based. Details: dose 2 mg/kg, route intravenous. The note with it: in vivo.

Values after ≈ are worked out from the molar mass of the structure shown.

In the case of `CCN(CC)S(=O)(=O)Nc1ccc2ccc3ncc(-c4cnn(C)c4)cc3c(=O)c2c1`, the IC50 in [1] turned out to be 2200 nM.

`CN(C)CCCn1cc(-c2cnc3ccc4ccc(NS(=O)(=O)N(C)C)cc4c(=O)c3c2)cn1`: the IC50 in data set [1] was 1100 nM.

On to `CN(C)S(=O)(=O)Nc1ccc2ccc3ncc(-c4cnn(CCF)c4)cc3c(=O)c2c1`, for which, in [1], the midpoint of inhibition, the IC50, lay at 610 nM.

In the case of `CN(Cc1ccccc1)S(=O)(=O)Nc1ccc2ccc3ncc(-c4cnn(C)c4)cc3c(=O)c2c1`, the IC50 in data set [2] is greater than 30000 nM; in data set [1], 50000 nM.

In data set [3], `Cn1cc(-c2cnc3ccc4ccc(NS(=O)(=O)N5CCC5)cc4c(=O)c3c2)cn1` had a half-life of 3.3 h. Besides, the IC50 in data set [1] is 1100 nM. For the same compound, the bioavailability in [4] was found to be 29%. This compound also showed a Vdss in data set [5] of 0.95 L/kg.

In turn, `CS(=O)(=O)Nc1ccc2c(=O)c3cc(-c4ccccc4)cnc3ccc2c1` displayed an IC50 in data set [6] greater than 10000 nM.

Compound `CNS(=O)(=O)Nc1ccc2ccc3ncc(-c4cnn(C)c4)cc3c(=O)c2c1` gave a half-life in [7] of 0.9 h. Also, the Vd in [8] was determined as 2.5 L/kg. Further, in data set [9], the bioavailability came out at 33%. For the same compound, the IC50 in data set [1] was found to be 750 nM. The compound further gave a clearance in data set [10] of 33.8 mL/min/kg.

For `COCC(F)Cn1cc(-c2cnc3ccc4ccc(NS(=O)(=O)N(C)C)cc4c(=O)c3c2)cn1` (racemic), the 50% inhibitory concentration (IC50) in data set [1] turned out to be 54 nM.

In data set [1], `CN(C)S(=O)(=O)Nc1ccc2ccc3ncc(-c4cnn(-c5ccccn5)c4)cc3c(=O)c2c1` had an IC50 of 1300 nM.

`CS(=O)(=O)Nc1ccc2ccc3nccc(Cl)c3c(=O)c2c1`: the IC50 in data set [6] is greater than 10000 nM.

For `Cn1cc(-c2cnc3ccc4ccc(NS(=O)(=O)N5CCOCC5)cc4c(=O)c3c2)cn1`, the IC50 in data set [1] came to 11000 nM.

For `CN([C@H]1CCOC1)S(=O)(=O)Nc1ccc2ccc3ncc(-c4cnn(C)c4)cc3c(=O)c2c1`, the half-life in [11] is 1.2 h. Further, the values for the IC50 in data set [2] and in data set [1] were greater than 30000 nM and 570 nM, respectively. This compound had a bioavailability in data set [12] of 38%. Moreover, the clearance in data set [13] was determined as 11 mL/min/kg. For the same compound, the Vd in [14] was found to be 1.1 L/kg.

As to `Cn1cc(-c2cnc3ccc4ccc(NS(N)(=O)=O)cc4c(=O)c3c2)cn1`, the figures for the IC50 in data set [2] and in [1] were 4300 nM and 990 nM, respectively.

On to `CCN1CCC(n2cc(-c3cnc4ccc5ccc(NS(=O)(=O)N(C)C)cc5c(=O)c4c3)cn2)CC1`, for which, in [1], the midpoint of inhibition, the IC50, lay at 55 nM.

In the case of `CS(=O)(=O)Nc1ccc2ccc3ncc(-c4ccccc4)cc3c(=O)c2c1`, the half-life in data set [7] stood at 0.5 h. The IC50 was 290 nM in data set [2]; greater than 50000 nM in data set [1]; greater than 50000 nM in [16]; greater than 50000 nM in data set [17]; greater than 50000 nM in data set [19]. The bioavailability in [9] came out at 2%. In data set [15], this compound displayed a solubility of 0.5 µg/mL (≈ 1.33 µM). The same compound registered a clearance in [10] of 24 mL/min/kg. This compound yielded a logP in data set [18] of 3.15.

For the compound `CN(C[C@H]1COCCO1)S(=O)(=O)Nc1ccc2ccc3ncc(-c4cnn(C)c4)cc3c(=O)c2c1`, the IC50 was 14 nM in data set [6], greater than 30000 nM in data set [2], 2800 nM in data set [1] and 210 nM in data set [20].

`CCCn1cc(-c2cnc3ccc4ccc(NS(=O)(=O)N(C)C)cc4c(=O)c3c2)cn1` showed an IC50 in [1] of 780 nM.

On to `Cn1cc(-c2cnc3ccc4ccc(NS(C)(=O)=O)cc4c(=O)c3c2)cn1`, for which the half-life in data set [7] came out at 0.5 h. The IC50 in data set [2] was 10100 nM; in data set [1], 1900 nM; in data set [21] it was 330 nM. Further, the clearance in data set [10] is 40 mL/min/kg.

Consider `CN(Cc1cnccn1)S(=O)(=O)Nc1ccc2ccc3ncc(-c4cnn(C)c4)cc3c(=O)c2c1`, for which the Vd in data set [22] was 2.4 L/kg. In addition, the results for the IC50 in [2] and in [1] were 7100 nM and 1100 nM, respectively. Also, in [23], the clearance was 39 mL/min/kg. Moreover, the half-life in data set [24] was 0.7 h.

As for `CN(C)S(=O)(=O)Nc1ccc2ccc3ncc(-c4cnn(C)c4)cc3c(=O)c2c1`, the IC50 in data set [2] and in [21] was greater than 30000 nM in each case.

Compound `CN(C)S(=O)(=O)Nc1ccc2ccc3ncc(-c4cnn(CC(=O)N5CCOCC5)c4)cc3c(=O)c2c1` came in with an IC50 in [1] of 1700 nM.

`CN(C)S(=O)(=O)Nc1ccc2ccc3ncc(-c4cnn(CC(F)CO)c4)cc3c(=O)c2c1` (racemic) came in with an IC50 in data set [1] of 270 nM.

In turn, `CN(C)S(=O)(=O)Nc1ccc2ccc3ncc(-c4cnn(CCCO)c4)cc3c(=O)c2c1` returned an IC50 in data set [1] of 370 nM.

Consider `Cn1cc(-c2cnc3ccc4ccc(NS(=O)(=O)N5CC(F)C5)cc4c(=O)c3c2)cn1`, for which the Vd in data set [22] amounted to 0.41 L/kg. The compound further displayed a clearance in data set [23] of 2.9 mL/min/kg. Further, in [1], 2400 nM corresponded to half-maximal inhibition (IC50). The half-life in data set [24] is 1.8 h.

For the compound `COCCCN(C)S(=O)(=O)Nc1ccc2ccc3ncc(-c4cnn(C)c4)cc3c(=O)c2c1`, the Vd in [22] was 1.1 L/kg. Further, the IC50 in data set [2] is greater than 30000 nM; in data set [1], 1500 nM. Besides, the clearance in data set [23] was found to be 10.7 mL/min/kg. In data set [24], this compound gave a half-life of 1.3 h.

(Values after ChEMBL document CHEMBL1800066 (J Med Chem, 2011).)
